Where two headings read alike, the source gives them in different places.
Molecular target: T1, ENaC (Epithelial Sodium Channel) (Mus musculus, UniProt Q61180+Q9WU38+Q9WU39)
T1 construct: Mouse kidney M−1 cells were cultivated in DMEM; endogenous in cells; host or cells: Mouse kidney M-1 cells, cultivated with dexamethasone on transwell filters
T1 sequence (Q61180 1-699): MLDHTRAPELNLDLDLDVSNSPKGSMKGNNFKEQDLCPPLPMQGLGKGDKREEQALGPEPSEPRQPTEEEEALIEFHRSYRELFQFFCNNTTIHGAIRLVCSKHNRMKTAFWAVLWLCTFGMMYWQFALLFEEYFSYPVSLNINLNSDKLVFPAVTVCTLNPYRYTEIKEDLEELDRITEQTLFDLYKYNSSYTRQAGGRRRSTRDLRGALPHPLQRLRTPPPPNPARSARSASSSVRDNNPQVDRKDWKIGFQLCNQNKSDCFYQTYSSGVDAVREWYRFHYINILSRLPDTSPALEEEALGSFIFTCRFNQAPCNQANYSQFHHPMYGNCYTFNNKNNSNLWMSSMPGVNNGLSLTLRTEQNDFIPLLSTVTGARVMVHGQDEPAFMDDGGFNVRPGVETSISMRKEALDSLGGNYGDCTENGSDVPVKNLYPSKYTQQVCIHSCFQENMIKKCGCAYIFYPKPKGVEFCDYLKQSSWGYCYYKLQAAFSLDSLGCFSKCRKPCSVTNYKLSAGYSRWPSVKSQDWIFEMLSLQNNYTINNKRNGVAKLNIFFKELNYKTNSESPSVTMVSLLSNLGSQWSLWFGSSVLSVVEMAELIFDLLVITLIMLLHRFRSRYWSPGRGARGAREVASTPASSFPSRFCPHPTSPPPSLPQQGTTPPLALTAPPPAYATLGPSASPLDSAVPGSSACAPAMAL
T1 sequence (Q9WU38 1-638): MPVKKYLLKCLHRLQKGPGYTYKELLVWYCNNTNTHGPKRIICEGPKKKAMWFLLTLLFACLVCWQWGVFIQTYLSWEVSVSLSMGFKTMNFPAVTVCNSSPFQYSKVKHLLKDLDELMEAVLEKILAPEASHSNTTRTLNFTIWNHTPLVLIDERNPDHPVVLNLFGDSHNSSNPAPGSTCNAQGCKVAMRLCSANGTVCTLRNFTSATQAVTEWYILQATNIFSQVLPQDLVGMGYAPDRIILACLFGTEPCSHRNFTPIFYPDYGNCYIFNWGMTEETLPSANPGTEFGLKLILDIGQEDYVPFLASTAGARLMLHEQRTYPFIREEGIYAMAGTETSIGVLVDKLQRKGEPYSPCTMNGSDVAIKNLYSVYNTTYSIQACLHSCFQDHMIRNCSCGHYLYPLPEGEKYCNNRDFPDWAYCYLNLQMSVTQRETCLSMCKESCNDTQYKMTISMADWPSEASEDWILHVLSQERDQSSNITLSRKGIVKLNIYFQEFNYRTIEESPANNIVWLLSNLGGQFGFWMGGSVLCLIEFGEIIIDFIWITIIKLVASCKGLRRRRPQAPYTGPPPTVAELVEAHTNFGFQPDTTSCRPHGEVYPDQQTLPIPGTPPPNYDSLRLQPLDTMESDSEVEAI
T1 sequence (Q9WU39 1-655): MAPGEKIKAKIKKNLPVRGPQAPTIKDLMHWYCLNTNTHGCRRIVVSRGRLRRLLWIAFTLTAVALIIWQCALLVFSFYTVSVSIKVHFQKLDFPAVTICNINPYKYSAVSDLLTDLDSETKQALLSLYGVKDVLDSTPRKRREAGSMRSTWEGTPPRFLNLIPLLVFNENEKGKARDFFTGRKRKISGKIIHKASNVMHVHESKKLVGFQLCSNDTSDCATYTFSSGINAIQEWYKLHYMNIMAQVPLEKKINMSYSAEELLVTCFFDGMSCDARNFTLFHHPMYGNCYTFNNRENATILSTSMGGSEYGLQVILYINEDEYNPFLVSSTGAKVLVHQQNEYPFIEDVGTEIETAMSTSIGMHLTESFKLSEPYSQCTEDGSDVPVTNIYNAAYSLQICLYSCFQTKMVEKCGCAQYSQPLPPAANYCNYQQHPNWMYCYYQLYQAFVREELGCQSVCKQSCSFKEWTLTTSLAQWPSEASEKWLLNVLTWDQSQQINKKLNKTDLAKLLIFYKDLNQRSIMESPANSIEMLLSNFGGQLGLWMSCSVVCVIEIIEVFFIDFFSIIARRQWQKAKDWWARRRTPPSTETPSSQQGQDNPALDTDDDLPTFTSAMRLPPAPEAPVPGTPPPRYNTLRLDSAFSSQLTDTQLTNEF
Assay: Ussing Chamber assay (short circuit current, amiloride sensitive I_SC)
Type: cell-based
Settings: Ussing chamber, mouse kidney M-1 cells, short circuit current, read-out: IC50
Experimental: The IC50 values of the example compounds given above were determined in the Ussing Chamber assay.
Ussing Chamber: Mouse kidney M−1 cells were cultivated in DMEM containing 5% FCS and 5 μM dexamethasone for 10 to 12 days on polyester transwell filters. Filters were inserted into a teflon-coated well-plate which fit into the ussing chamber system. Prior to measurement the medium of M−1 cells was replaced with Caco-2 transport buffer (Invitrogen, Germany). During measurements, the Ussing chamber temperature was kept at 37° C. Short circuit currents (I_sc) were measured in the voltage-clamp mode with the software package Lab View for data acquisition and analysis. The transepithelial electrical resistance (TEER) was determined by the application of voltage steps of ±5 mV every 5 sec. Compounds were administered at a final concentration of 3 μM or at increasing concentrations (1-3-10 μM) to the apical solution. At the end of each experiment the amiloride sensitive I_SC was measured by adding 3 μM amiloride to the apical compartment. Results are expressed as inhibition in percent of the amiloride effect or as IC50.

[1] = compound added to the apical solution
[2] = value printed in the example text with μM

Nc1nc(N)c(C(=O)N[C@H]2CCC[N+](CCCc3ccc(OCC(=O)NCCn4ccnc4)cc3)(CCCc3ccc(OCC(=O)NCCn4ccnc4)cc3)C2)nc1Cl [6.15]
IC50 [1]: 0.009 µM

COc1ccc(CCC[N+]2(CCCc3ccc(OC)cc3)CCC(NC(=O)c3nc(Cl)c(N)nc3N)C2)cc1 (stereo not drawn) [Example 1.1]
IC50 [1]: 0.03 µM

COc1ccc(CCC[N+]2(CCCc3ccc(OC)cc3)CC(NC(=O)c3nc(Cl)c(N)nc3N)[C@H](c3ccc(C)cc3)C2)cc1 (stereo partly drawn) [Example 1.2]
IC50 [1]: 0.2 µM

COc1ccc(CCC[N+]2(CCCc3ccc(OC)cc3)CCCCC(NC(=O)c3nc(Cl)c(N)nc3N)C2)cc1 (stereo not drawn) [Example 1.3]
IC50 [1]: 0.044 µM

COc1ccc(CCC[N+]2(CCCc3ccc(OC)cc3)CCC[C@H](NC(=O)c3nc(Cl)c(N)nc3N)C2)cc1 [Example 1.4]
IC50 [1]: 0.004 µM

COc1ccc(CCC[N+]2(CCCc3ccc(OC)cc3)CCC[C@@H](NC(=O)c3nc(Cl)c(N)nc3N)C2)cc1 [Example 1.5]
IC50 [1]: 0.038 µM

COc1ccc(CCC[N+](C)(CCCc2ccc(OC)cc2)CC(NC(=O)c2nc(Cl)c(N)nc2N)c2ccccc2)cc1 (stereo not drawn) [Example 2, {2-[(3,5-Diamino-6-chloro-pyrazine-2-carbonyl)-amino]-2-phenyl-ethyl}-bis-[3-(4-methoxy-phenyl)-propyl]-methyl-ammonium chloride]
IC50 (unit inferred): 0.03 µM

COc1ccc(CCC[N+](C)(CCCc2ccc(OC)cc2)[C@@H]2C[C@H]2NC(=O)c2nc(Cl)c(N)nc2N)cc1 [Example 2.1]
IC50 [1]: 0.08 µM

COc1ccc(CCC[N+](C)(CCCc2ccc(OC)cc2)C[C@H](C)NC(=O)c2nc(Cl)c(N)nc2N)cc1 [Example 2.2]
IC50 [1]: 0.13 µM

COc1ccc(CCC[N+](C)(CCCc2ccc(OC)cc2)CC(C)(C)NC(=O)c2nc(Cl)c(N)nc2N)cc1 [Example 2.3]
IC50 [1]: 0.51 µM

COc1ccc(CCC[N+]2(C)CCC(NC(=O)c3nc(Cl)c(N)nc3N)C2)cc1 (stereo not drawn) [Example 3, 3-[(3,5-Diamino-6-chloro-pyrazine-2-carbonyl)-amino]-1-[3-(4-methoxy-phenyl)-propyl]-1-methyl-pyrrolidinium chloride]
IC50 [2]: 0.79 µM

COc1ccc(CCC[N@+]2(C)CCC[C@H](NC(=O)c3nc(Cl)c(N)nc3N)C2)cc1 [Example 3.1]
IC50 [1]: 0.75 µM

COc1ccc(CCC[N@@+]2(C)CCC[C@H](NC(=O)c3nc(Cl)c(N)nc3N)C2)cc1 [Example 3.2]
IC50 [1]: 0.07 µM

COc1ccc(CCC[N+]2(CCCC3CCCCC3)CCCC(NC(=O)c3nc(Cl)c(N)nc3N)C2)cc1 (stereo not drawn) [Example 3.3]
IC50 [1]: 0.099 µM

COc1ccc(CCC[N+]2(CCCCc3ccccc3)CCCC(NC(=O)c3nc(Cl)c(N)nc3N)C2)cc1 (stereo not drawn) [Example 3.4]
IC50 [1]: 0.034 µM

COc1ccc(CCC[N+]2(CCCc3ccccc3)CCCC(NC(=O)c3nc(Cl)c(N)nc3N)C2)cc1 (stereo not drawn) [Example 3.5]
IC50 [1]: 0.006 µM

COc1ccc(CCC[N+]2(CCc3ccccc3)CCCC(NC(=O)c3nc(Cl)c(N)nc3N)C2)cc1 (stereo not drawn) [Example 3.6]
IC50 [1]: 0.06 µM

COc1ccc(CCC[N+]2(Cc3ccccc3)CCCC(NC(=O)c3nc(Cl)c(N)nc3N)C2)cc1 (stereo not drawn) [Example 3.7]
IC50 [1]: 0.14 µM

COc1ccc(CCC[N+]2(C)CC(NC(=O)c3nc(Cl)c(N)nc3N)[C@H](c3ccc(C)cc3)C2)cc1 (stereo partly drawn) [Example 3.8]
IC50 [1]: 0.6 µM

COC(=O)c1ccc(CCC[N+]2(CCCc3ccc(C(=O)OC)cc3)CCCC(NC(=O)c3nc(Cl)c(N)nc3N)C2)cc1 (stereo not drawn) [Example 4, 3-[(3,5-Diamino-6-chloro-pyrazine-2-carbonyl)-amino]-1,1-bis-[3-(4-methoxycarbonylphenyl)-propyl]-piperidinium chloride]
IC50 [2]: 0.34 µM

Nc1nc(N)c(C(=O)NC2CCC[N+](CCCc3ccc(C(=O)[O-])cc3)(CCCc3ccc(C(=O)O)cc3)C2)nc1Cl (stereo not drawn) [Example 4.1, 1,1-Bis-[3-(4-carboxy-phenyl)-propyl]-3-[(3,5-diamino-6-chloro-pyrazine-2-carbonyl)amino]-piperidinium]
IC50 [2]: 0.35 µM

Nc1nc(N)c(C(=O)NC2CCC[N+](CCCc3ccc(C(=O)NCCOCCOCCO)cc3)(CCCc3ccc(C(=O)NCCOCCOCCO)cc3)C2)nc1Cl (stereo not drawn) [Example 4.2, 3-[(3,5-Diamino-6-chloro-pyrazine-2-carbonyl)-amino]-1,1-bis-[3-(4-{2-[2-(2-hydroxyethoxy)-ethoxy)]-ethylcarbamoyl}-phenyl)-propyl]-piperidinium chloride]
IC50 [2]: 0.76 µM

COC(=O)c1ccc(CCC[N+]2(CCCc3ccc(OC)cc3)CCCC(NC(=O)c3nc(Cl)c(N)nc3N)C2)cc1 (stereo not drawn) [Example 5, 3-[(3,5-Diamino-6-chloro-pyrazine-2-carbonyl)-amino]-1-[3-(4-methoxycarbonyl-phenyl)propyl]-1-[3-(4-methoxy-phenyl)-propyl]-piperidinium chloride]
IC50 [2]: 0.038 µM

COc1ccc(CCC[N+]2(CCCc3ccc(C(=O)[O-])cc3)CCCC(NC(=O)c3nc(Cl)c(N)nc3N)C2)cc1 (stereo not drawn) [Example 5.1, 1-[3-(4-Carboxy-phenyl)-propyl]-3-[(3,5-diamino-6-chloro-pyrazine-2-carbonyl)-amino]-1-[3-(4-methoxy-phenyl)-propyl]-piperidinium]
IC50 [2]: 0.11 µM

COC(=O)CNC(=O)c1ccc(CCC[N+]2(CCCc3ccc(OC)cc3)CCCC(NC(=O)c3nc(Cl)c(N)nc3N)C2)cc1 (stereo not drawn) [Example 5.2, 3-[(3,5-Diamino-6-chloro-pyrazine-2-carbonyl)-amino]-1-{3-[4-(methoxycarbonylmethylcarbamoyl)-phenyl]-propyl}-1-[3-(4-methoxy-phenyl)-propyl]-piperidinium chloride]
IC50 [2]: 0.042 µM

COc1ccc(CCC[N+]2(CCCc3ccc(C(=O)N(CCCN(C)C)CCCN(C)C)cc3)CCCC(NC(=O)c3nc(Cl)c(N)nc3N)C2)cc1 (stereo not drawn) [Example 5.3]
IC50 [1]: 0.055 µM

COc1ccc(CCC[N+]2(CCCc3ccc(C(=O)NCCCS(=O)(=O)O)cc3)CCCC(NC(=O)c3nc(Cl)c(N)nc3N)C2)cc1 (stereo not drawn) [Example 5.4]
IC50 [1]: 0.26 µM

COc1ccc(CCC[N+]2(CCCc3ccc(C(=O)NCCOCCOCCO)cc3)CCCC(NC(=O)c3nc(Cl)c(N)nc3N)C2)cc1 (stereo not drawn) [Example 5.5]
IC50 [1]: 0.07 µM

COc1ccc(CCC[N+]2(CCCc3ccc(C(N)=O)cc3)CCCC(NC(=O)c3nc(Cl)c(N)nc3N)C2)cc1 (stereo not drawn) [Example 5.6]
IC50 [1]: 0.025 µM

COc1ccc(CCC[N+]2(CCCc3ccc(C(=O)NCCCN(C)C)cc3)CCCC(NC(=O)c3nc(Cl)c(N)nc3N)C2)cc1 (stereo not drawn) [Example 5.7]
IC50 [1]: 0.02 µM
